According to EP0615449B1, “USE OF FLAVINE DERIVATIVES IN THE PRODUCTION OF MEDICO-SURGICAL SANITARY ARTICLES AND SANITARY ARTICLES SO OBTAINED” (BERQUE, Jean, priority 1992, dated 1994):

Columns and labels:
VIH = details: cited from earlier work
HIV [1] = assay: In vitro antiviral tests of FAD compared with AZT and DDI; format: cell-based
[2] = Cytotoxicity observed in the in vitro tests of FAD; format: cell-based
[3] = vulcanisation à chaud du latex; cited from earlier work
[4] = tested on: cellules CEM-SS infectées par HIV1; assay: In vitro anti-viral test on HIV1-infected CEM-SS cells (Institut de Virologie, Strasbourg), read out as reverse transcriptase inhibition; format: cell-based; details: dilution au 1/5000è
Excerpt: Début 1992, un test "in vitro" a été effectué par l'Institut de Virologie de la Faculté de Strasbourg. Le test est positif à la dilution au 1/5000è sur les cellules CEM-SS infectées par HIV1; l'effet anti-viral est objectivé par une inhibition de la transcriptase reverse supérieure à 50%.

HIV [5] = assay: Clinical observation, intravenous vitamin B2 in an AIDS patient (stage IV); format: in vivo; details: malade sidéen stade IV; voie intra-veineuse, injection unique de 20 mg par jour
Excerpt: (§1) L'idée de départ découlait donc de constatations expérimentales concernant la photosynthèse protéique à l'échelle animale et la photosynthèse virale. On a donc utilisé initialement la vitamine B2 en fonction de ses propriétés d'absorption de la lumière avec l'idée d'interposer un écran photoprotecteur entre le rayonnement solaire UV parvenant à l'organisme et les virus HIV et HSV dont les patients étaient porteurs. Ce concept a été formulé dans le but d'"éteindre" ces virus dont il semblait, en fonction des hypothèses émises, que le rayonnement ultra-violet activait tant leur synthèse que leur replication. Les effets cliniques spectaculaires et très rapidement obtenus ont confirmé l'hypothèse de départ. C'est par la suite que le Demandeur s'est rendu compte qu'outre les propriétés photoprotectrices de la vitamine B2, la formule biochimique diphosphonucléotidique de son métabolite actif, le FAD, jouait également un rôle important.

Herpès génital = assay: Clinical observation, intravenous vitamin B2 in a patient with recurrent genital herpes; format: in vivo; details: récurrence importante d'un Herpès génital; voie intra-veineuse, injection unique de 20 mg par jour
Excerpt: as §1

[6] = lait exposé à la lumière, même dans un emballage transparent; cited from earlier work
rougeole = details: traitement par la vitamine A, AFRIQUE DU SUD; cited from earlier work

## N[C@@H](CCC(=O)N[C@@H](CS)C(=O)NCC(=O)O)C(=O)O [glutathion]
VIH
  activité anti-VIH in vitro: exerce une activité anti-VIH in vitro

## Cc1cc2nc3c(=O)[nH]c(=O)nc-3n(C[C@H](O)[C@H](O)[C@H](O)COP(=O)(O)OP(=O)(O)OC[C@H]3O[C@@H](n4cnc5c(N)ncnc54)[C@H](O)[C@@H]3O)c2cc1C [FAD, flavine -adenine dinucleotide]
HIV [1]
  activité in vitro: aussi actif in vitro que l'AZT et plus actif que le DDI
[2]
  cyto-toxicité: sans aucune cyto-toxicité
[3]
  stabilité thermique: thermostables

## C=CC1=C(C)c2cc3[n-]c(cc4[n-]c(cc5nc(cc1n2)C(C)=C5C=C)c(C)c4CCC(=O)O)c(CCC(=O)O)c3C.[Fe+2] [Hème]
VIH
  activité anti-VIH in vitro: exerce une activité anti-VIH in vitro

## Cc1cc2nc3c(=O)[nH]c(=O)nc-3n(C[C@H](O)[C@H](O)[C@H](O)CO)c2cc1C [vitamine B2, Riboflavine]
[4]
  inhibition de la transcriptase reverse: > 50%
  test "in vitro" (effet anti-viral): positif
HIV [5]
  effets cliniques: résultats spectaculaires
Herpès génital
  effets cliniques: résultats spectaculaires
[6]
  Riboflavine détruite: 85%

## CC1=C(/C=C/C(C)=C/C=C/C(C)=C/CO)C(C)(C)CCC1 [vitamine A]
rougeole
  amélioration de la rougeole: amélioration notable

## acides biliaires
VIH
  activité anti-VIH in vitro: actifs in vitro sur le VIH
